Experiment [1] has as its target T1, human NMBR (Homo sapiens, UniProt P28336). Put plainly: [3H]Inositol phosphate generation, hNMBR/BALB cells. The format is cell-based.
The target in experiment [2] is T2, rat GRPR (Rattus norvegicus, UniProt P52500). Put plainly: [3H]Inositol phosphate generation, rGRPR/AR42J cells. In kind it is cell-based.
Experiment [3] has as its target T3, human BRS-3 (Homo sapiens, UniProt P32247).
T3 sequence (P32247 1-399): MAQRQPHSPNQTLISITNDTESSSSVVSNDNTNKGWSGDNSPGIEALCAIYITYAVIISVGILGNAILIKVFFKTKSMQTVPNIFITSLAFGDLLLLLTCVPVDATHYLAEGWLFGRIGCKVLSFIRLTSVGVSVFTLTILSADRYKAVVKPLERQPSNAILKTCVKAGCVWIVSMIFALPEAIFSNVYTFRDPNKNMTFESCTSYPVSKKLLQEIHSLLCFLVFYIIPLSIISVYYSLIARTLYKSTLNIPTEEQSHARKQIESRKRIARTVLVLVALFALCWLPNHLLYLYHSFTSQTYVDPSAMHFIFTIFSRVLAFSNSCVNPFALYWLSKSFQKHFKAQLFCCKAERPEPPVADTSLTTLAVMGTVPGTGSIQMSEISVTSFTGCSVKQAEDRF
The experiment in a line: [3H]Inositol phosphate generation. The format is cell-based. The note with it: for IC50/ EC50 hBRS-3/BALB: binding IC50 over [3H]IP EC50, hBRS-3/BALB cells, measure of receptor spareness.

Experiment [4] has as its target T4, mouse NMBR (Mus musculus, UniProt O54799).
T4 sequence (O54799 1-390): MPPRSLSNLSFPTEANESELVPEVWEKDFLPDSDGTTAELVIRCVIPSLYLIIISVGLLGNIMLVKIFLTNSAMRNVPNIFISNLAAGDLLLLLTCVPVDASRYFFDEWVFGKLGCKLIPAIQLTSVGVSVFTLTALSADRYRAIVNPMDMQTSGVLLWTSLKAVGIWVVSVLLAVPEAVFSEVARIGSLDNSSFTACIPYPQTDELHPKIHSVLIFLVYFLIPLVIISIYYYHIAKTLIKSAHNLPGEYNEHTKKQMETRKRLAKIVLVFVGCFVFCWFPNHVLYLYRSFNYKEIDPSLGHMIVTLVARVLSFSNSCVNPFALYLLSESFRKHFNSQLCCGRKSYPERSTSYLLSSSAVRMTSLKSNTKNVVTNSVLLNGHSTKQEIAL
Put plainly: [3H]Inositol phosphate generation, mNMBR/BALB cells. In kind it is cell-based.

In experiment [5] the target is T5, human GRPR (Homo sapiens, UniProt P30550). Put plainly: [3H]Inositol phosphate generation, hGRPR/BALB cells. In kind it is cell-based.
The next experiment has as its target T6, mouse BRS-3 (Mus musculus, UniProt O54798).
T6 sequence (O54798 1-399): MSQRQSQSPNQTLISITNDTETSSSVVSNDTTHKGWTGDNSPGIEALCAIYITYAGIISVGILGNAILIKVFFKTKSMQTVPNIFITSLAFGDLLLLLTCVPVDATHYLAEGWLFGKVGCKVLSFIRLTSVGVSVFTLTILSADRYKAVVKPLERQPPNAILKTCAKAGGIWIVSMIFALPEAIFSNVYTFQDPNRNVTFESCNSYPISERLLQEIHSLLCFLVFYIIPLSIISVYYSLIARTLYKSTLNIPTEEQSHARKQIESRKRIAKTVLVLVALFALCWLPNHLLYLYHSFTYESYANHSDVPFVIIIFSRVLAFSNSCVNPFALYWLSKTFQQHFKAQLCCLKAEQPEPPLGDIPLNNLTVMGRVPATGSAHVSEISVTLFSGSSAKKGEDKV
The experiment in a line: [3H]Inositol phosphate generation, mBRS-3/BALB cells. In kind it is cell-based.

In experiment [6] the target is T7, mouse GRPR (Mus musculus, UniProt P21729). Put plainly: [3H]Inositol phosphate generation, mGRPR/BALB cells. In kind it is cell-based.
For experiment [7], the target named is T8, rat NMBR (Rattus norvegicus, UniProt P24053).
T8 sequence (P24053 1-390): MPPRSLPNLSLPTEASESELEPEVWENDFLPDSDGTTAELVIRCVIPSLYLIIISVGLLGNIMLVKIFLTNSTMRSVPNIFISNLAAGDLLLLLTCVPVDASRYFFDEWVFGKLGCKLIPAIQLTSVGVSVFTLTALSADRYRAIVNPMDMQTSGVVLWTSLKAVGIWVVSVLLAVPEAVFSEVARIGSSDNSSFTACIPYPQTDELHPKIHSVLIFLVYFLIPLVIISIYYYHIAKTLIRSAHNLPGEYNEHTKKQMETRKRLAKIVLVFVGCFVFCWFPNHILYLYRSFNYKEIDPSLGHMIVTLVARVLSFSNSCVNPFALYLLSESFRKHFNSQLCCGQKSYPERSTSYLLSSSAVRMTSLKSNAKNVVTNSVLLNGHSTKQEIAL
Put plainly: [3H]Inositol phosphate generation, rNMBR/BALB cells. In kind it is cell-based.

Experiment [8] addresses T3, human BRS-3. Put plainly: Binding studies, inhibition of 125I-[D-Tyr6,β-Ala11,Phe13,Nle14]Bn-.
The next experiment has as its target T9, rat BRS-3 (Rattus norvegicus, UniProt Q8K418).
T9 sequence (Q8K418 1-399): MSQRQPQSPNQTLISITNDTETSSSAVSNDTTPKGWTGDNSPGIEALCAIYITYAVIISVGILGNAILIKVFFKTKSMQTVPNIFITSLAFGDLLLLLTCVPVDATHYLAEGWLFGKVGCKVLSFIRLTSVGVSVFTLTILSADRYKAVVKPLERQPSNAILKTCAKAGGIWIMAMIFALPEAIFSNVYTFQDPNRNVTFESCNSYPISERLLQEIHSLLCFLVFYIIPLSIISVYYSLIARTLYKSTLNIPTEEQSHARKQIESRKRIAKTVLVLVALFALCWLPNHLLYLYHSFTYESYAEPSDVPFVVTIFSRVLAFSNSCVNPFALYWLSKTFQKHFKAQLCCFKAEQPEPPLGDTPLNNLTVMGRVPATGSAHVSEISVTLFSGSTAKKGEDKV
Put plainly: [3H]Inositol phosphate generation, rBRS-3/BALB cells. In kind it is cell-based.

For experiment [9], the target named is T7, mouse GRPR. Put plainly: Binding studies, mGRPR/BALB cells.
The target of experiment [10] is T2, rat GRPR. Put plainly: Binding studies, rGRPR/AR42J cells.
Experiment [11] deals with T4, mouse NMBR. The experiment in a line: Binding studies, mNMBR/BALB cells.
Experiment [12] addresses T8, rat NMBR. The experiment in a line: Binding studies, rNMBR/BALB cells.
In experiment [13] the target is T1, human NMBR. The experiment in a line: Binding studies, hNMBR/BALB cells.
Experiment [14] has as its target T5, human GRPR. Put plainly: Binding studies, hGRPR/BALB cells.
Setting [15] is: read-out: EC50 Human NMBR hNMBR/BALB, [3H]IP production, 60 min, 37°C.
The mark [16] stands for this setting: read-out: EC50 Rat GRPR rGRPR/AR42J, [3H]IP production, 60 min, 37°C.
Setting [17] is: read-out: EC50 Human BRS-3 hBRS-3/BALB, [3H]IP production, 60 min, 37°C.
Where [18] appears, read: read-out: EC50 Mouse NMBR mNMBR/BALB, [3H]IP production, 60 min, 37°C.
Setting [19] is: read-out: EC50 Human GRPR hGRPR/BALB, [3H]IP production, 60 min, 37°C.
Where [20] appears, read: read-out: EC50 Mouse BRS-3 mBRS-3/BALB, [3H]IP production, 60 min, 37°C.
Setting [21] is: read-out: EC50 Mouse GRPR mGRPR/BALB, [3H]IP production, 60 min, 37°C.
The mark [22] stands for this setting: read-out: EC50 Rat NMBR rNMBR/BALB, [3H]IP production, 60 min, 37°C.
Where [23] appears, read: read-out: EC50 Rat BRS-3 rBRS-3/BALB, [3H]IP production, 60 min, 37°C.

“And” between values parts separate entries of the source, which are not always exact repeats. Identical values can stand only once. “Also recorded” adds a separate entry of the source. Like-named read-outs stand apart in the source and are kept apart here. Bounds are passed on as bounds.

T5 sequence (P30550 whole entry): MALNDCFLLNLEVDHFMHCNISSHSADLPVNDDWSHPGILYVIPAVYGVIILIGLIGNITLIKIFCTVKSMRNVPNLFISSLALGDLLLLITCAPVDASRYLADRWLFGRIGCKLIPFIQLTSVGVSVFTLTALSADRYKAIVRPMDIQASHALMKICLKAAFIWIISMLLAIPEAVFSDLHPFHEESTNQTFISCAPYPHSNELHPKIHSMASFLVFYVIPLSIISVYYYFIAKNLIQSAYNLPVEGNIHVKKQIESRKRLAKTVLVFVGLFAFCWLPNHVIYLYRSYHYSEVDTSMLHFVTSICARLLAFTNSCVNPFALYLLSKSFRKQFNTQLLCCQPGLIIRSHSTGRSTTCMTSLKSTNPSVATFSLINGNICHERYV
T7 sequence (P21729 whole entry): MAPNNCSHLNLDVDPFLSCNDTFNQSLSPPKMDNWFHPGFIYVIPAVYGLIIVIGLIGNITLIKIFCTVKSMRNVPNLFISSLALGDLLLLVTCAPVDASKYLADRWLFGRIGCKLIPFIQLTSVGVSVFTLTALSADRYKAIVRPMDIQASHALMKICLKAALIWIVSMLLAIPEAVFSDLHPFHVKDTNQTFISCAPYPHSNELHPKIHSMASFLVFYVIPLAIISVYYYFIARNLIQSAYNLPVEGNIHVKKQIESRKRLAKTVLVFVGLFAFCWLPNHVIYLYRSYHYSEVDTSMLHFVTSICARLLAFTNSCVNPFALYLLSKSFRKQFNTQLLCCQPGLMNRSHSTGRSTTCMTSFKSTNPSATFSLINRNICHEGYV
T1 sequence (P28336 whole entry): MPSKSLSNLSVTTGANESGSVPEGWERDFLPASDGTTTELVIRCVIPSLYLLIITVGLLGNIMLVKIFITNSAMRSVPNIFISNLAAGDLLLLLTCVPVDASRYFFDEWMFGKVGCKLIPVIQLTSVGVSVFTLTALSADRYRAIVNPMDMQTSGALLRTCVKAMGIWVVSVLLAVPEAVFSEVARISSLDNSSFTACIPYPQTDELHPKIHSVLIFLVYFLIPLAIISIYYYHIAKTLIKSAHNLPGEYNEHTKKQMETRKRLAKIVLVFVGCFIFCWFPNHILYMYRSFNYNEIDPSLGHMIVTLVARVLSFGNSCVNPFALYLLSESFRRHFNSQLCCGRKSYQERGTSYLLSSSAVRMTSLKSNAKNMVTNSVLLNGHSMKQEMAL
T2 sequence (P52500 whole entry): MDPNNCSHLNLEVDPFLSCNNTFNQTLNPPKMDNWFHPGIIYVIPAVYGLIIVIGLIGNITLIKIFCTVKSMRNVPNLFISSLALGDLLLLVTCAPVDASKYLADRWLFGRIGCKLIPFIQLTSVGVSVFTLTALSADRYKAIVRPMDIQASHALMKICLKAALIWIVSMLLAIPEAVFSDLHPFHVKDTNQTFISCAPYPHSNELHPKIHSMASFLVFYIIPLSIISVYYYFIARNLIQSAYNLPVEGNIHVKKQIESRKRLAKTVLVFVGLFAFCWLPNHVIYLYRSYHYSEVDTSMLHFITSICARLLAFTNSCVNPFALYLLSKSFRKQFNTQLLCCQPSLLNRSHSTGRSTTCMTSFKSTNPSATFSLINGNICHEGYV

`Cc1ccc(Oc2cccc(CC(=O)N3CCNc4nc(C(F)(F)F)ccc4[C@H]3CC(=O)O)c2)cn1` [9F, [(5R)-4-((3-[(6-methylpyridin-3-yl)oxy]phenyl)acetyl)-8-(trifluoromethyl)-2,3,4,5-tetrahydro-1H-pyrido[2,3-e][1, 4]diazepin-5-yl]acetic acid]: the EC50 at human NMBR [1] (setting [15]) is above 3000 nM; on rat GRPR [2] (setting [16]), above 3000 nM; on human BRS-3 [3] (setting [17]), 39 nM; at human BRS-3 [3] (read-out: EC50 Human BRS-3 hBRS-3/BALB, [3H]IP production, 60 min, 37°C, listed as 9 F), 39.6 ± 1 nM; at mouse NMBR [4] (setting [18]), above 3000 nM; on human GRPR [5] (setting [19]), above 3000 nM. Also, the EC50 at mouse BRS-3 (setting [20]) is 86.8 ± 0.8 nM; on mouse GRPR [6] (setting [21]), above 3000 nM; on rat NMBR [7] (setting [22]) it was above 3000 nM; at rat BRS-3 (setting [23]) it was 295 ± 0.5 nM. On human BRS-3 [3] (hBRS-3/BALB cells), the “lower potency than 9G or 9D” value is recorded as 4.3 fold. Also, the “less potent than MK-5046” value is recorded as 5 fold on mouse BRS-3 (mBRS-3/BALB cells) and 8 fold at rat BRS-3 (rBRS-3/BALB cells). For the same molecule, the “lower potency compared to 9D or 9G” value at mouse BRS-3 (mBRS-3/BALB cells) was 4.3 fold. Besides, the “lower affinity compared with 9G” value at human BRS-3 [8] (hBRS-3/BALB cells) is 1.7-13 fold. The “lower potency than 9G and 3F” value at rat BRS-3 (rBRS-3/BALB cells) stood at 7.8 fold.
In the case of `CC(C)COc1cccc(CC(=O)N2CCNc3nc(C(F)(F)F)ccc3[C@H]2CC(=O)O)c1` [9G, [(5R)-4-([3-(2-methylpropoxy)phenyl]acetyl)-8-(trifluoromethyl)-2,3,4,5-tetrahydro-1H-pyrido[2,3-e][1, 4]diazepin-5-yl]acetic acid], the EC50 at human NMBR [1] (setting [15]) is above 3000 nM; on rat GRPR [2] (setting [16]), above 3000 nM; on human BRS-3 [3] (setting [17]), 9 nM; at human BRS-3 [3] (read-out: EC50 Human BRS-3 hBRS-3/BALB, [3H]IP production, 60 min, 37°C, listed as 9 G) it was 9.2 ± 0.39 nM; on mouse NMBR [4] (setting [18]) it was above 3000 nM; on human GRPR [5] (setting [19]), above 3000 nM. The EC50 on mouse BRS-3 (setting [20]) is 20.1 ± 0.9 nM; on mouse GRPR [6] (setting [21]), above 3000 nM; on rat NMBR [7] (setting [22]) it was above 3000 nM; on rat BRS-3 (setting [23]), 37.9 ± 0.8 nM. The “IC50/ EC50 hBRS-3/BALB” value on human BRS-3 [3] is listed as 7.6. The “less potent than MK-5046” value at mouse BRS-3 (mBRS-3/BALB cells) is 3.5–3.8 fold and 4 fold; at rat BRS-3 (rBRS-3/BALB cells), 165 fold. The “affinity greater than MK-5046” value at human BRS-3 [8] (hBRS-3/BALB cells) is 1.5 fold.
Turning to `O[C@@](Cc1nc(CC2(C(F)(F)F)CC2)c[nH]1)(c1ccc(-n2cccn2)cc1)C(F)(F)F` [MK-5046, (2S)-1,1,1-trifluoro-2-[4-(1H-pyrazol-1-yl)phenyl]-3-(4-[[1-(trifluoromethyl)cyclopropyl]methyl]-1H-imidazol-2-yl)propan-2-ol], the EC50 on human NMBR [1] is above 3000 nM; at rat GRPR [2] it was above 3000 nM; at human BRS-3 [3], 8.7 ± 0.47 nM; on mouse NMBR [4] it was above 3000 nM; at human GRPR [5] it was above 3000 nM; at mouse BRS-3, 5.24 ± 0.36 nM. The EC50 on mouse GRPR [6] is above 3000 nM; on rat NMBR [7] it was above 3000 nM; at rat BRS-3 it was 0.23 ± 0.08 nM. For the same molecule, the “IC50/ EC50 hBRS-3/BALB” value at human BRS-3 [3] is 11.7 and 11.72. Besides, the “maximal stimulated [3H]IP value” at human BRS-3 [3] (hBRS-3/BALB cells, 1 μM, n=13) is 70,268 ± 4,912 dpm. Moreover, the “efficacy for activating PLC” value at human BRS-3 [3] (human BRS-3 cells), at mouse BRS-3 (mouse BRS-3 cells) and on rat BRS-3 (rat BRS-3 cells) was “full efficacious; also recorded: fully efficacious” in each case. The “increase on activating PLC” value at human BRS-3 [3] (human BRS-3 containing cells) worked out at 3.8 fold; at mouse BRS-3 (mouse BRS-3 containing cells), 3.9 fold; at rat BRS-3 (rat BRS-3 containing cells), 5.8 fold. The IC50 (in general, the concentration at which inhibition is half-maximal) at mouse GRPR [9] is above 3 µM; at rat GRPR [10], above 3 µM; at mouse NMBR [11], above 3 µM; on rat NMBR [12] it was above 3 µM; on human NMBR [13], above 3 µM; on human BRS-3 [8], 102 ± 2 nM. The molecule also displayed a half-inhibitory concentration (IC50) on human GRPR [14] above 3 µM. Also, the “maximal stimulation of [3H]IP” value at mouse BRS-3 (mBRS-3/BALB cells, 1 μM, n=3) is listed as 62,992 ± 9,298 dpm; at rat BRS-3 (rBRS-3/BALB cells, 1 μM, n=7), 21,812 ± 1,721 dpm. For the same molecule, the “more potent in rBRS-3 than in hBRS-3” value at rat BRS-3 (rBRS-3 versus hBRS-3) was 38 fold. Besides, the “more potent in rBRS-3 than in mBRS-3” value on rat BRS-3 (rBRS-3 versus mBRS-3) was 22 fold.

For the origin of these results see article PMC5461819 (Peptides, 2015).
